Columns and labels:
PKBdelta PH = molecular target: T1, PKBdelta PH (Homo sapiens, UniProt P31749, S473D); experiment: Protein kinase panel selectivity screen, PKBdelta PH; format: biochemical; details: 1 μM compound; [ATP] 5 μM
T1 construct: Dundee University (panel)
Experimental: (§1) The names of the 29 kinases comprising the selectivity screen, as well as the ATP concentrations used in each kinase case, are given in Table 5. The kinase assays were carried out as described previously.
(§2) Compound XIV at a concentration of 1 μM was screened in the 29-kinase panel (Dundee University) and the results are shown bellow in Table 6.

PDK1 = molecular target: T2, PDK1 (Homo sapiens, UniProt O15530); experiment: Protein kinase panel selectivity screen, PDK1; format: biochemical; details: 1 μM compound; [ATP] 20 μM
T2 construct: Dundee University (panel)
T2 sequence (O15530 whole entry): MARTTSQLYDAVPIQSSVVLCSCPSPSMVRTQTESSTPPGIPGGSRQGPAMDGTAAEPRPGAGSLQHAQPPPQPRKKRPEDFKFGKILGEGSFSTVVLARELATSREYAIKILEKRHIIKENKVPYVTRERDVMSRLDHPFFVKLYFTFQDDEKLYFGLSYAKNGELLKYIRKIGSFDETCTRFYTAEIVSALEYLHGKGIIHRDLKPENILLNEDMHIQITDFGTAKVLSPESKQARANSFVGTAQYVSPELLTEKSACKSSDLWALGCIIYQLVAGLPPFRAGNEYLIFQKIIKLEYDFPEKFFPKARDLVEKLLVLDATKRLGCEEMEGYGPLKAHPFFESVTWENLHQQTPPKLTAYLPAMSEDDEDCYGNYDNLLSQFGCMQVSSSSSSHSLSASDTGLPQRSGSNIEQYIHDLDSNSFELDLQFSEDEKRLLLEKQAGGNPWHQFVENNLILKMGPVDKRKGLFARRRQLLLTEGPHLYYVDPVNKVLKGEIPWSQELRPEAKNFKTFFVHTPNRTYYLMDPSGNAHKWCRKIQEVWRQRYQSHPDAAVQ
Experimental: as §1, §2

CDK4/cyclin D1 = molecular target: T3, CDK4/cyclin D1 (Homo sapiens, UniProt P11802); experiment: CDK/cyclin kinase assay, CDK4/cyclin D1; format: biochemical
T3 construct: His6 (N); made in house; host or cells: CDK4: Sf9 insect cells (baculovirus); Cyclin D1: E. coli, Sf9
T3 sequence (P11802 whole entry): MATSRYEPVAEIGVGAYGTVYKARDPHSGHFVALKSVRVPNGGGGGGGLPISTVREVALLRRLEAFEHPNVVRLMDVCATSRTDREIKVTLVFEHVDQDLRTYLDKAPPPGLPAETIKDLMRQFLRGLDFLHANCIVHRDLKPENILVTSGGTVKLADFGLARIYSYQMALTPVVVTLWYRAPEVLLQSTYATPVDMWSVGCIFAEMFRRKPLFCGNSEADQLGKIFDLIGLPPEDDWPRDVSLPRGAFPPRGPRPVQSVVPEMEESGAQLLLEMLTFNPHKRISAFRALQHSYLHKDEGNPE
T3 sequence (P24385 whole entry partner): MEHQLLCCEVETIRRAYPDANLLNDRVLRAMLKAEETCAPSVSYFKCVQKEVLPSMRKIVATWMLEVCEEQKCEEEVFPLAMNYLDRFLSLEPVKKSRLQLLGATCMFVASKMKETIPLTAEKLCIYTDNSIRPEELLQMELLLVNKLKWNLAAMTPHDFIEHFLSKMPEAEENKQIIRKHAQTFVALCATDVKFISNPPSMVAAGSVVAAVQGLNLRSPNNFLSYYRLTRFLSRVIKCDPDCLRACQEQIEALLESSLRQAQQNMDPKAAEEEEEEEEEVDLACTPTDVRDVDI
Experimental: (§3) CDK4/cyclin D1, CDK1/cyclin B, CDK2/cyclin E, CDK2/cyclin A, CDK9/cyclin T1 and CDK7/cyclin H, all with a His6 tag on the N-terminus, were expressed in Sf9 insect cells using an appropriate baculovirus construct. Sf9 culture (1.6×10^6 cells/mL) was infected (MOI of 3) for two days. The cells were harvested by low speed centrifugation and the protein was purified from the insect cell pellet by metal affinity chromatography. In short: the insect cell pellet was lysed in Buffer A (10 mM Tris-HCl pH 8.0, 150 mM NaCl, 0.02% NP-40, 5 mM β-mercaptoethanol, 20 mM NaF, 1 mM Na3VO4, and Sigma Protease Inhibitor Cocktail) by sonication. The soluble fraction was cleared by centrifugation and loaded onto Ni-NTA-Agarose (Qiagen). Non-bound protein was washed off with 300 mM NaCl, 5-15 mM imidazole in buffer A and the bound protein was eluted with buffer A supplemented with 250 mM imidazole. The purified proteins were extensively dialyzed against storage buffer (20 mM HEPES pH 7.4, 50 mM NaCl, 2 mM DTT, 1 mM EDTA, 1 mM EGTA, 0.02% NP-40, 10% v/v glycerol) and stored at −70° C.
(§4) Compounds were investigated for their CDK2/cyclin E, CDK2/cyclin A, CDK1/cyclin B, and CDK4/cyclin D1 inhibitory activity. His6-tagged recombinant human cyclin-dependent kinases CDK1/cyclin B1, CDK2/cyclin E, CDK2/cyclin A, and CDK4 were expressed in sf9 insect cells using a baculovirus expression system. Recombinant cyclin D1 was expressed in E. coli. Proteins were purified by metal chelate affinity chromatography to greater than 90% homogeneity. Kinase assays were performed in 96-well plates using recombinant CDK/cyclins. Assays were performed in assay buffer (25 mM β-glycerophosphate, 20 mM MOPS, 5 mM EGTA, 1 mM DTT, 1 mM […], pH 7.4), into which were added 2-4 μg of active enzyme with appropriate substrates (purified histone H1 for CDK1 and CDK2, recombinant GST-retinoblastoma protein (residues 773-928) for CDK4). The reaction was initiated by addition of Mg/ATP mix (15 mM MgCl2+100 μM ATP with 30-50 kBq per well of [γ-^32P]-ATP) and mixtures incubated for 10-45 min, as required, at 30° C. Reactions were stopped on ice, followed by filtration through p81 or GF/C filterplates (for CDK4) (Whatman Polyfiltronics, Kent, UK). After washing 3 times with 75 mM aq orthophosphoric acid, plates were dried, scintillant added and incorporated radioactivity measured in a scintillation counter (TopCount, Packard Instruments, Pangbourne, Berks, UK). Compounds for kinase assays were made up as 10 mM stocks in DMSO and diluted into 10% DMSO in assay buffer. Data was analysed using curve-fitting software (GraphPad Prism version 3.00 for Windows, GraphPad Software, San Diego Calif. USA) to determine IC50 values (concentration of test compound which inhibits kinase activity by 50%).

CSK = molecular target: T4, CSK (Homo sapiens, UniProt P41240); experiment: Protein kinase panel selectivity screen, CSK; format: biochemical; details: 1 μM compound; [ATP] 20 μM
T4 construct: Dundee University (screening panel)
T4 sequence (P41240 whole entry, species assumed): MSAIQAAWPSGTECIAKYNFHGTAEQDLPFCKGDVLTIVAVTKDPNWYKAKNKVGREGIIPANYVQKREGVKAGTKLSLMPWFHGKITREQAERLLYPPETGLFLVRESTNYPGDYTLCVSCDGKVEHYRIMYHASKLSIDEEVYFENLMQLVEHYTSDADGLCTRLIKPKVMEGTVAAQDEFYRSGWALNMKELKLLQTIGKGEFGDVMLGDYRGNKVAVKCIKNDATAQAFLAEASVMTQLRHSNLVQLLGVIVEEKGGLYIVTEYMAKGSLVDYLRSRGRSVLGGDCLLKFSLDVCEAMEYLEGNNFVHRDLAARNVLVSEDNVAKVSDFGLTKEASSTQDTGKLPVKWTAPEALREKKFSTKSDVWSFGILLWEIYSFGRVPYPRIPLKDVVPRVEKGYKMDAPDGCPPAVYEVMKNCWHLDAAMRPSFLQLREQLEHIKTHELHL
Experimental: as §1, §2

CDK2/cyclin A = molecular target: T5, CDK2/cyclin A (Homo sapiens, UniProt P24941); experiment: CDK/cyclin kinase assay, CDK2/cyclin A; format: biochemical
T5 construct: His6 (N); made in house; host or cells: Sf9 insect cells (baculovirus)
Experimental: as §3, §4

DYRK1a = molecular target: T6, DYRK1a (Homo sapiens, UniProt Q13627); experiment: Protein kinase panel selectivity screen, DYRK1a; format: biochemical; details: 1 μM compound; [ATP] 50 μM
T6 construct: Dundee University (screening panel)
Experimental: as §1, §2

CK2 = experiment: Protein kinase panel selectivity screen, CK2; format: biochemical; details: 1 μM compound; [ATP] 5 μM
Experimental: as §1, §2

AMPK = experiment: Protein kinase panel selectivity screen, AMPK; format: biochemical; details: 1 μM compound; [ATP] 50 μM
Experimental: as §1, §2

CDK2/cyclin E = molecular target: T7, CDK2/cyclin E (Homo sapiens, UniProt P24941); experiment: CDK/cyclin kinase assay, CDK2/cyclin E; format: biochemical
T7 construct: His6 (N); made in house; host or cells: Sf9 insect cells (baculovirus)
Experimental: as §3, §4

[1] = tested on: glycogen synthase activity in HEK293 cells; experiment: Glycogen synthase (GS) assay in HEK293 cells; format: cell-based, human
Experimental: Cells on 10 cm dishes (Human Embryonic Kidney (HEK) 293 cells, L6 rat myocytes, or 3T3 mouse adipocytes) were treated with different concentrations of GSK3-inhibitors or DMSO vehicle for 90 min. Incubation medium was removed and cells were washed with ice-cold phosphate-buffered saline (PBS) prior to lysis on ice in 50 mM HEPES, pH 7.5, 10 mM EDTA, 100 mM NaF, 5 mM DTT, protease inhibitor cocktail (Sigma). After a freeze/thaw cycle the samples are sonicated for 10 sec and centrifuged at 15,000 g for 10 min at 4° C. Lysate supernatants were snap-frozen on liquid nitrogen and stored at −80° C. Lysates were assayed for glycogen synthase activity in buffer (50 mM Tris-HCl, pH 7.8, 20 mM EDTA, 25 mM NaF, 5 mM DTT, 1% glycogen, 0.3 mM UDP-glucose and 0.06 μCi of [^14C]-UDP-glucose in the presence of 0.1 or 10 mM glucose-6-phosphate. The reaction was carried out for 30 min at 30° C. 70 μL of the reaction mixture (total volume 90 μL) were transferred to a GFC 96-well filter plate (bottom sealed with foil), containing 140 μL 96% ethanol. The GFC plate was incubated for 1 h on ice and than washed with 66% ethanol. To each well 100 μL scintillant liquid was added and the radioactivity of the samples was measured using a scintillation counter (Topcount, HP). Data are expressed as -fold increase in glycogen synthase activity ratios over those of control samples.

T1 sequence (P31749 118-480 S473D limits assumed): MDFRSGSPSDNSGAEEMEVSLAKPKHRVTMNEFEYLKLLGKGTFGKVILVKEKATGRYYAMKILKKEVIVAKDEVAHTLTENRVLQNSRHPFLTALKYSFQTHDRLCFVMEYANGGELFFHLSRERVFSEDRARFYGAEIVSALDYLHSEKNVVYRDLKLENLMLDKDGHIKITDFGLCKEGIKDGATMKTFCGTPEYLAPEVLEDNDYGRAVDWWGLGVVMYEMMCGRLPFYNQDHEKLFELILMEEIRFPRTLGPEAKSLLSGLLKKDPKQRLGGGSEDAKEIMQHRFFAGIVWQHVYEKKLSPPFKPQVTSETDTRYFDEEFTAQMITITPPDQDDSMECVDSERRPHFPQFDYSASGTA

In the case of `Clc1ccc(Nc2nccc(-c3nccs3)n2)cn1` [Compound XIV, (6-Chloro-pyridin-3-yl)-(4-thiazol-2-yl-pyrimidin-2-yl)-amine], the activity at 1 µM (PKBdelta PH) is reported as 98 ± 1%, the activity at 1 µM (PDK1) is reported as 85 ± 5% and the Ki (CDK4/cyclin D1) is reported as > 100 µM. The “Fold selectivity for GSK3 over CDK4/cyclin D1” value (CDK4/cyclin D1; from Ki) was >6,250 fold, the IC50 (CDK4/cyclin D1; read-out: Kinase inhibition IC50 CDK4/D1) was > 100 µM and the activity at 1 µM (CSK) was 93 ± 8%. The Ki (CDK2/cyclin A) was > 50 µM, the “Fold selectivity for GSK3 over CDK2/cyclin A” value (CDK2/cyclin A; from Ki) was >3,125 fold and the IC50 (CDK2/cyclin A; read-out: Kinase inhibition IC50 CDK2/A) was > 50 µM. For the same compound, the activity at 1 µM (DYRK1a) was 74 ± 8%, the “% Activity CK2” value (CK2) was 84 ± 1% and the “% Activity AMPK” value (AMPK) was 82 ± 5%. The Ki (CDK2/cyclin E) was 5.5 µM, the “Selectivity IC50 (CDK2/E)/IC50 (GSK3β)” value (CDK2/cyclin E) was 63 and the “Fold selectivity for GSK3 over CDK2/cyclin E” value (CDK2/cyclin E; from Ki) was 345 fold. For the same compound, the IC50 (CDK2/cyclin E; read-out: Kinase inhibition IC50 CDK2/E) was 11 µM, the “Activation of GS compared with 40 mM LiCl” value ([1]; HEK293 cells, 5 μM) was “comparable to that induced by 40 mM LiCl” and the “Activity of glycogen synthase (fractional velocity)” value ([1]; HEK293 cells, ratio of activity at 0.1 and 10 mM glucose-6-phosphate) was “increased the activity of glycogen synthase”. For the same compound, the EC50 ([1]; Homo sapiens, HEK293, from dose-response curves, read-out: EC50 activation of glycogen synthase) was 1.5 ± 0.6 µM, the fold induction at 0.1 µM ([1]; Homo sapiens, HEK293 cells, 0.1 μM) was 0.9 and the fold induction at 0.5 µM ([1]; Homo sapiens, HEK293 cells, 0.5 μM) was 1.1. For the same compound, the fold induction at 1 µM ([1]; Homo sapiens, HEK293 cells, 1 μM) was 1.6, the fold induction at 5 µM ([1]; Homo sapiens, HEK293 cells, 5 μM (Table 4)) was 3.3 and the fold induction at 5 µM ([1]; Homo sapiens, In HEK293 cells at [compound] = 5 μM (Table 2)) was 3.7.

Source: patent publication US20080318954A1, “Compounds” (Cyclacel Limited, priority 2004, published 2008)
